Data published in patent US20250092056A1, “URACIL DERIVATIVES HAVING VIRUS REPLICATION INHIBITORY ACTIVITY AND PHARMACEUTICAL COMPOSITION COMPRISING THE SAME” (Shionogi & Co., Ltd., priority 2022, published 2025).
pEC50, pIC50: −log10 of the molar value. “And” between values parts separate entries of the source, which are not always exact repeats. Identical values can stand only once. Like-named read-outs stand apart in the source and are kept apart here.

Columns and labels:
SARS-CoV-2 = assay: Cytopathic effect (CPE) suppression effect confirmation test using HEK293T/ACE2-TMPRSS2 cells; type: cell-based; conditions: Severe acute respiratory syndrome coronavirus 2, HEK-293T
[1] = target: Recombinant SARS-CoV-2 3CL Protease (Severe acute respiratory syndrome coronavirus 2 (2019-nCoV) (SARS-CoV-2), UniProt P0DTD1); assay: biochemical; type: biochemical; conditions: 50% SARS-CoV-2 3CL protease inhibitory concentration; read-out: IC50
[2] = 72 h, HEK293T/ACE2-TMPRSS2 cells, CPE suppression, CellTiter-Glo 2.0 after 3 days culture, read-out: EC50 (50% SARS-CoV-2 infected cell death inhibitory concentration), class
[3] = 50% SARS-CoV-2 infected cell death inhibitory concentration, HEK293T/ACE2-TMPRSS2 cells, read-out: EC50
[4] = 72 h, read-out: EC50 (50% SARS-CoV-2 infected cell death inhibitory concentration), class, HEK293T/ACE2-TMPRSS2 cells, CPE suppression, CellTiter-Glo 2.0 after 3 days culture

SMILES	pEC50 (SARS-CoV-2; [2])	pIC50 [1]	pEC50 (SARS-CoV-2; [3])	pEC50 (SARS-CoV-2; [4])
Cc1cc(-n2c(=O)c(-c3cc(Cl)cc(C(F)(F)F)c3)c(N3CCC(C(F)(F)F)CC3)n(CC#N)c2=O)cc(=O)[nH]1 [Compound I-200]	> 7.00	7.00 to 8.00		
N#CCn1c(N2CC3(CCOCC3)C2)c(-c2ccc(F)c(Cl)c2)c(=O)n(-c2cncc(Cl)c2)c1=O [Compound I-292]		> 8.00	> 7.00	
Cc1cc(-n2c(=O)c(-c3ccc(F)c(Cl)c3)c(N3C[C@H]4CCCC[C@H]4C3)n(CC#N)c2=O)cc(=O)[nH]1 [Compound I-172]		> 8.00		> 7.00
N#CCn1c(CCC(F)(F)F)c(-c2ccc(F)c(Cl)c2)c(=O)n(-c2cncc(Cl)c2)c1=O [Compound I-324]		> 8.00	> 7.00	
N#CCn1c(N2CC3(CCOC3)C2)c(-c2ccc(F)c(Cl)c2)c(=O)n(-c2cnc3cc(Cl)ccn23)c1=O [Compound I-131]		> 8.00		> 7.00
N#CCn1c(N2CC3(CCOC3)C2)c(Cc2cc(F)c(F)c(F)c2)c(=O)n(-c2nsc3ccccc23)c1=O [Compound I-143]		< 7.00		5.30 to 6.00
N#CCn1c(N2CC3(CCOC3)C2)c(CC2CC(F)(F)C2)c(=O)n(-c2cncc(Cl)c2)c1=O [Compound I-364]		< 7.00	6.00 to 7.00	
N#CCn1c(N2CC3(C2)CC(F)(F)C3)c(-c2ccc(F)c(Cl)c2)c(=O)n(-c2cc(Cl)cnn2)c1=O [Compound I-214]		> 8.00	> 7.00	
Cc1cncc(-n2c(=O)c(C(=O)c3cc(F)c(F)c(F)c3)c(-c3cc4ccccc4s3)n(CC#N)c2=O)c1 [Compound I-011]	> 7.00	7.00 to 8.00		
Cc1cncc(-n2c(=O)c(-c3ccc(F)c(Cl)c3)c(N3C[C@H]4C[C@@H]3CO4)n(CC#N)c2=O)c1 [Compound I-226]		> 8.00	> 7.00	
Cc1c(-c2ccc(F)c(Cl)c2)c(=O)n(-c2cncc(Cl)c2)c(=O)n1CC(=O)CO [Compound I-443]		< 7.00	6.00 to 7.00	
CC(=O)Cn1c(C)c(-c2ccc(F)c(Cl)c2)c(=O)n(-c2cncc(Cl)c2)c1=O [Compound I-442]		7.00 to 8.00	> 7.00	
Cc1cnnc(-n2c(=O)c(Cc3cc(F)c(F)c(F)c3)c(N3C[C@H]4C[C@@H](C3)O4)n(CC#N)c2=O)c1 [Compound I-035]		< 7.00		6.00 to 7.00
Cc1cc(-n2c(=O)c(-c3ccc(F)c(Cl)c3)c(-c3ccc(C4CC4)cc3)n(CC#N)c2=O)cc(=O)[nH]1 [Compound I-183]		7.00 to 8.00 and > 8.00		> 7.00
Cc1cncc(-n2c(=O)c(Cc3cc(F)c(F)c(F)c3)c(N3CCC(C(F)(F)F)CC3)n(CC#N)c2=O)c1 [Compound I-119]		> 8.00		> 7.00
C[C@@H](C#N)n1c(N2CC[C@@](O)(C(F)F)C2)c(-c2ccc(F)c(C(F)F)c2)c(=O)n(-c2cncc(Cl)c2)c1=O (single isomer, unassigned) [Compound I-428]		> 8.00	> 7.00	
N#CCn1c(N2CC3(C2)CC(F)(F)C3)c(-c2ccc(F)c(Cl)c2)c(=O)n(-c2cc(Cl)c[n+]([O-])c2)c1=O [Compound I-426]		> 8.00	> 7.00	
N#CCn1c(N2CC3(C2)CC(F)(F)C3)c(-c2ccc(F)c(Cl)c2)c(=O)n(CC#N)c1=O [Compound I-210]		< 7.00	6.00 to 7.00	
Cc1cc(-n2c(=O)c(-c3ccc(F)c(Cl)c3)c(N3CC4(CCOCC4)C3)n(CC#N)c2=O)cc(=O)[nH]1 [Compound I-161]		> 8.00		5.30 to 6.00
N#CCn1c(N2CC3(CCOC3)C2)c(C2=CCCCCC2)c(=O)n(-c2cncc(Cl)c2)c1=O [Compound I-227]		> 8.00	> 7.00	
N#CCn1c(N2CC(OC(F)F)C2)c(-c2ccc(F)c(C#N)c2)c(=O)n(-c2cncc(Cl)c2)c1=O [Compound I-375]		> 8.00	> 7.00	
N#CCn1c(N2CC(F)(C3CC3)C2)c(-c2ccc(F)c(Cl)c2)c(=O)n(-c2cncc(F)c2)c1=O [Compound I-300]		> 8.00	> 7.00	
N#CCn1c(N2CC(C(F)(F)F)C2)c(-c2ccc(F)c(Cl)c2)c(=O)n(-c2cncc(OCF)c2)c1=O [Compound I-352]		> 8.00	> 7.00	
Cc1cncc(-n2c(=O)c(-c3ccc(F)c(Cl)c3)c(-c3ccc(C(=O)OC(C)(C)C)cc3)n(CC#N)c2=O)c1 [Compound I-027]		< 7.00		6.00 to 7.00
Cc1cc(-n2c(=O)c(-c3ccc(F)c(Cl)c3)c(-c3cc4ccccc4s3)n(CC#N)c2=O)cc(=O)[nH]1 [Compound I-173]		> 8.00		> 7.00
